Tests used:
[1] = COE intercalation into lipid bilayer of SUVs, emission measured with a fluorimeter; assay type: physicochemical; settings: in PBS
Description: Liposomes were prepared using the protocol as follows. Phospholipids (ex. POPC, POPE, and POPG) in chloroform solution were mixed to a proper molar ratio and dried under a gentle stream of nitrogen. The dried lipids were further desiccated in a vacuum overnight to obtain a thin lipid film. For preparing small unilamellar vesicles (SUVs), rehydration of the dried film was carried out by adding phosphate buffered saline (PBS) to a concentration of 5 mg mL-1, followed by incubation at 35° C. for 2 h under constant stirring at ˜300 rpm. Then, the vesicles were extruded using a 100 nm membrane at 45° C. 21 times to obtain SUV samples. Vesicles were kept at 4° C. until further use.
When mixing the SUVs with COE-BT, the COE will intercalate into the lipid bilayers. This is spontaneously driven by the electrostatic and hydrophobic interactions between the COEs and the lipids. As a result, a significant emission enhancement is observed. For example, relative to the COE-BT solution, the emission intensity of the SUV and COE-BT complexes increases more than 400 times between 600 to 630 nm. […] By adjusting different chemical structures, the COEs can achieve different emission wavelengths, ranging from “green”, “red”, to even “infrared” (FIGS. 14 & 15). The various color choices confer COE dyes with high compatibility in using multiple dyes concurrently.

[2] = Dynamic light scattering of liposome size and uniformity after COE addition; assay type: physicochemical; settings: 10 μM COE into 1 mg/mL SUV samples
Description: To identify whether COE treatment will alter the morphology of liposomes (e.g., inducing the fusion or fission of liposomes), dynamic light scattering (DLS) measurements with a lipid SUV model were employed (FIG. 16). The SUVs were obtained after extrusion using a 100 nm membrane. […] After addition of 10 μM COE-BBT into the 1 mg/mL SUV samples, the Z-average size is 104.8±32.65 nm with a PDI of 0.054.

[3] = system: SW480 exosomes; assay: NanoAnalyzer (NanoFCM) flow analysis of dye-labelled SW480 exosomes and dye only controls; settings: for % Positive for dye: after purifying excess dyes using ultracentrifugation; for Number of particle counts, positive / Number of particle counts, total: dye only controls
Description: In another example, exosomes isolated from SW480 colon cancer cell lines and purified using size exclusion chromatography were kindly provided by NanoFCM (UK). The labelling and flow cytometry analysis were also carried out by the trained technicians at NanoFCM (UK). […] The mixture was left to incubate at room temperature for 30 min and then diluted 100 times using PBS before analysis on the NanoAnalyzer (NanoFCM). Detection of the exosomes was carried out on the small threshold settings (68-155 S16M-Exo) and analysis of the labelled population was done on the PC5 channel (Ex488/Em670). Dye control samples were prepared by replacing the 9 μL exosome solution with PBS, followed by the same steps as the exosome samples for flow analysis. The results were validated through at least two replicates. In a separate experiment, the labelled exosomes were also purified of excess dyes using standard ultracentrifugation methods before analyzing as per described above.

[4] = system: HCT 116 Exosomes; assay: Flow cytometry of exosomes labelled with COE compound
Description: Exosome were prepared via the following protocol: Exosomes were purchased from ATCC, aliquoted and stored at −80° C. A single aliquot was removed from −80° C. and placed on ice. Exosomes were diluted 10 times in cell culture grade PBS. 8 μL of the exosome suspension was mixed with between […] of COE compound. This was placed on ice for 10-minutes before being diluted 100 times in PBS to an approximate final concentration of 6×10^6 particles/mL of exosomes and 25-1 nM of COE.
Samples were briefly vortexed and used for flow cytometry. Flow cytometry measurements were obtained by measuring the side scattering on the violet laser (x-axis) and by measuring fluorescent intensity (y-axis: λexcitation=405, 488 nm λemission=525, 690 nm). […] Using the COE compound, the exosomes can be stained with a low concentration of dye and can be used directly without additional purification.

[5] = system: RBCs; assay: Flow cytometry of COE-stained and unstained red blood cells mixed at various ratios; assay type: cell-based, Bovine
Description: RBCs (isolated from Bovine whole blood, Innovative Research, Inc.) were diluted 10 times from stock into PBS and centrifuged at 3,000 RPM for 5 minutes. The supernatant was removed, and the pellet was resuspended in PBS. This was repeated for a total of 3 times. The final pellet was resuspended into PBS to be 1% by volume. […] COE compound was added to the RBC suspension and was allowed to incubate for 20 min at RT. The RBC COE compound mixture was then centrifuged again at 3,000 RPM for 5 min. The supernatant was removed and the pellet resuspended in fresh PBS. COE compound stained and unstained RBCs were respectively mixed at various ratios by volume of 0:5, 1:4, 2:3, 3:2, 4:1 and 5:0. The resulting RBC mixtures were diluted 100 times in PBS for flow cytometry experiments.

[6] = system: Red blood cells; assay: Flow cytometry of red blood cells from donor's blood labelled with dye; assay type: cell-based
Description: Red blood cells were obtained from donor's blood after removing the plasma via centrifugation. The RBC were either used fresh or stored for 22 days. […] The cells were incubated with the dyes for 10 min before centrifuging down at 700 g for 3 min to remove free dyes. The labelled cell pellet was then resuspended in 1 mL of PBS. The cells were then diluted 10× further in PBS before imaging on the 8-well ibidi chamber slides, and analysing for size and fluorescence on the flow cytometry (Cytoflex).

Compound	% Positive for dye ([3]; 10 uM)	% Positive for dye ([3]; 20 uM)	Number of particle counts, positive ([3]; 10 uM)	Number of particle counts, total ([3]; 10 uM)	% of events in Area of Interest ([4]; Exosome + COE)	All Events/μL ([4]; Exosome + COE)	Area of Interest Events/μL ([4]; Exosome + COE)	% of events in Area of Interest ([4]; dye only, no exosomes)	All Events/μL ([4]; dye only, no exosomes)	Area of Interest Events/μL ([4]; dye only, no exosomes)	further results
C[N+](C)(C)CCCCCCOc1cc(/C=C/c2ccc(-c3ccc(-c4c5c(c(-c6ccc(-c7ccc(/C=C/c8cc(OCCCCCC[N+](C)(C)C)c(OCCCCCC[N+](C)(C)C)c(OCCCCCC[N+](C)(C)C)c8)cc7)s6)c6nsnc46)N=S=N5)s3)cc2)cc(OCCCCCC[N+](C)(C)C)c1OCCCCCC[N+](C)(C)C [COE-BBT]											emission enhancement after mixing with SUVs (in words) [1]: same phenomenon is seen; PDI of SUVs after COE addition [2]: 0.054; Z-average size of SUVs after COE addition [2]: 104.8±32.65 nm
CCCCCCCCCCCCCCCCCCCCCC[N+]1=C(/C=C/C=C2/N(CCCCCCCCCCCCCC)c3ccccc3C2(C)C)C(C)(C)c2ccccc21.[I-] [PKH-26, reference compound]	22.00%	19.90%	636	637							
C[N+](C)(C)CCCCCCOc1cc(/C=C/c2ccc(-c3ccc(-c4ccc(-c5ccc(-c6ccc(/C=C/c7cc(OCCCCCC[N+](C)(C)C)c(OCCCCCC[N+](C)(C)C)c(OCCCCCC[N+](C)(C)C)c7)cc6)cc5)cc4)cc3)cc2)cc(OCCCCCC[N+](C)(C)C)c1OCCCCCC[N+](C)(C)C.[I-].[I-].[I-].[I-].[I-].[I-] [COE-Quin]					63.71%	6088.97 Events/μL	3878.99 Events/μL	7.98%	1438.47 Events/μL	114.78 Events/μL	
C[N+](C)(C)CCCCCCOc1cc(/C=C/c2ccc(-c3ccc(-c4ccc(-c5ccc(-c6ccc(/C=C/c7cc(OCCCCCC[N+](C)(C)C)c(OCCCCCC[N+](C)(C)C)c(OCCCCCC[N+](C)(C)C)c7)cc6)s5)cc4)s3)cc2)cc(OCCCCCC[N+](C)(C)C)c1OCCCCCC[N+](C)(C)C.[I-].[I-].[I-].[I-].[I-].[I-] [COE-Ben]					54.69%	6071.19 Events/μL	3314.72 Events/μL	6.72%	1480.33 Events/μL	99.48 Events/μL	
C[N+](C)(C)CCCCCCOc1cc(/C=C/c2ccc(-c3ccc(-c4ccc(-c5ccc(-c6ccc(/C=C/c7cc(OCCCCCC[N+](C)(C)C)c(OCCCCCC[N+](C)(C)C)c(OCCCCCC[N+](C)(C)C)c7)cc6)s5)c5nonc45)s3)cc2)cc(OCCCCCC[N+](C)(C)C)c1OCCCCCC[N+](C)(C)C.[Br-].[Br-].[Br-].[Br-].[Br-].[Br-] [COE-BO]	43.10%	47.60%	2	181							Percentage + (positive events) ([3]; labelled SW480 exosomes, 10 uM, N = 2): 66.55%
C[N+](C)(C)CCCCCCOc1cc(/C=C/c2ccc(/C=C/c3ccc(/C=C/c4ccc(/C=C/c5ccc(/C=C/c6cc(OCCCCCC[N+](C)(C)C)c(OCCCCCC[N+](C)(C)C)c(OCCCCCC[N+](C)(C)C)c6)cc5)cc4)cc3)cc2)cc(OCCCCCC[N+](C)(C)C)c1OCCCCCC[N+](C)(C)C.[I-].[I-].[I-].[I-].[I-].[I-] [COE-S6]					63.67%	5113.31 Events/μL	3255.41 Events/μL	1.41%	2909.37 Events/μL	41.08 Events/μL	RBC + COE-S6 Events/μL ([5]; stained to unstained RBCs 1:4): 207.2 Events/μL; RBC Events/μL ([5]; stained to unstained RBCs 1:4): 891.58 Events/μL; total events/μL ([5]; stained to unstained RBCs 1:4): 1098 events/μL; RBC + COE-S6 Events/μL ([5]; stained to unstained RBCs 2:3): 312.27 Events/μL; RBC Events/μL ([5]; stained to unstained RBCs 2:3): 812.03 Events/μL; total events/μL ([5]; stained to unstained RBCs 2:3): 1124 events/μL; RBC + COE-S6 Events/μL ([5]; stained to unstained RBCs 3:2): 767.09 Events/μL; RBC Events/μL ([5]; stained to unstained RBCs 3:2): 470.71 Events/μL; total events/μL ([5]; stained to unstained RBCs 3:2): 1237 events/μL; RBC + COE-S6 Events/μL ([5]; stained to unstained RBCs 4:1): 1039.71 Events/μL; RBC Events/μL ([5]; stained to unstained RBCs 4:1): 225.64 Events/μL; total events/μL ([5]; stained to unstained RBCs 4:1): 1265 events/μL; RBC + COE-S6 Events/μL ([5]; stained to unstained RBCs 5:0): 450.48 Events/μL; RBC Events/μL ([5]; stained to unstained RBCs 5:0): 2.98 Events/μL; total events/μL ([5]; stained to unstained RBCs 5:0): 453 events/μL; artifact to the morphology of the RBC (FSC/SSC dot plots) ([6]; 1 μM COE-S6): does not introduce an artifact; change in fluorescence of RBCs labelled with increasing dye concentrations ([6]; histograms, FIG. 35 d-e): increase in fluorescence; homogeneity of RBC labelling (coefficient of variance of histogram data) ([6]; versus Cell Mask Deep Red): more homogeneous and uniform
